# Data: US11136432B2, “Method for producing polyisothianaphthene-based electroconductive polymer” (SHOWA DENKO K.K., priority 2016, dated 2021)
# Experiments:
# [1] = Solubility test: amount dissolved in 10 g of solvent, visually inspected; assay type: physicochemical
# Experimental: Benzo[c]thiophene-1,3-dihydro-2-oxide was dissolved a little at a time in 10 g of a solvent, and the amount of dissolution was visually inspected.
# 1,3-dihydroisothianaphthene was dissolved a little at a time in 10 g of a solvent.
# [2] = Stability test after dissolution: visual observation of the solution; assay type: physicochemical; settings: in the air
# Experimental: (§1) 1.0 g of benzo[c]thiophene-1,3-dihydro-2-oxide and 0.25 g of p-toluenesulfonic acid-hydrate (pTSA, molar ratio: 5/1) were dissolved in 11.0 g of each solvent (solid content: 10 mass %) in composition as shown in Table 3 in the air. The solution was visually observed immediately (early period), 24 hours, and one week after the dissolution.
# as §1, with “1,3-dihydroisothianaphthene” for “benzo[c]thiophene-1,3-dihydro-2-oxide”, “0.28” for “0.25”, “11.3” for “11.0”, “4” for “3”
# A part of the prepared aqueous solution was delivered by drops onto a glass plate, followed by heating and drying at 120° C. for 1 hour. The generated solid was black. The generation of polyisothianaphthene was confirmed from the measurement of the UV spectrum obtained by adding the product to water.
# A part of the prepared solution was delivered by drops onto a glass plate, followed by heating and drying at 120° C. for 1 hour. The generated solid was black. The generation of polyisothianaphthene was confirmed from the measurement of the UV spectrum obtained by adding the product to water.
# [3] = 4° C., DMSO, pTSA (molar ratio 5/1), solid content 10 mass %
# [4] = 25° C., DMSO, pTSA (molar ratio 5/1), solid content 10 mass %
# [5] = 25° C., EtOH, pTSA (molar ratio 5/1), solid content 10 mass %
# [6] = 25° C., solvent None, catalyst None
"Visual observation After 1 week [2, 3]","Visual observation After 24 hours [2, 3]","Visual observation After 1 week [2, 4]","Visual observation After 24 hours [2, 4]","Visual observation After 1 week [2, 5]","Visual observation After 24 hours [2, 5]","Visual observation After 1 week [2, 6]","Visual observation After 24 hours [2, 6]",Structure (SMILES),Dissolution amount ([1]; solvent: Dimethyl formamide),Dissolution amount ([1]; solvent: Dimethyl sulfoxide),Dissolution amount ([1]; solvent: Ethanol),Dissolution amount ([1]; solvent: Ethylene glycol),Dissolution amount ([1]; solvent: Isopropanol),Dissolution amount ([1]; solvent: Methanol),Dissolution amount ([1]; solvent: Water)
Pale yellow,Pale yellow,Deep blue,Pale brown,Deep blue,Brownish red,Pale brown,Pale yellow,"c1ccc2c(c1)CSC2 [Comparative Example 1, 1,3-dihydroisothianaphthene]",Soluble,Soluble,Soluble,Insoluble,Soluble,Slightly soluble,Insoluble
–,–,–,–,–,–,–,–,"[O-][S+]1Cc2ccccc2C1 [Example 1, benzo[c]thiophene-1,3-dihydro-2-oxide]",Soluble,Soluble,Soluble,Soluble,Soluble,Soluble,Soluble
